This test can be described thus: DPPH radical scavenging (antioxidant) assay. In kind it is biochemical. As to conditions: vitamin C 1 mM. As to the method:
The antioxidant activity of the natural composite preservatives was analyzed with DPPH (1,1-diphenyl-2-picrylhydrazyl). DPPH is a color radical generally used in determining radical scavenging capacity. Test samples were dissolved in 4 ml of distilled water or a solvent and mixed with 1 ml of 100 μM DPPH before incubation at room temperature for 30 min. Absorbance at 517 nm was read to calculate the amount of remaining DPPH (blank: distilled water or solvent only, control: DPPH alone in distilled water or solvent). Radical Scavenging Activity (RSA) was expressed as percentages of the test groups relative to the control, as calculated by the following equation 1.

Take `O=C1O[C@H]([C@@H](O)CO)C(O)=C1O` [vitamin C]: the RSA was 35%.

For the origin of these results see patent US20070231403A1, “Natural composite preservatives” (priority 2006, published 2007).
